Bridge positions count the residues as written; N and C are the ends. Square brackets hold non-standard residues; d marks the D form. Peptide text beside a SMILES is read from it. * marks the point of attachment. Octanoyl = CCCCCCCC(=O)*; Dab = NCC[C@H](N)C(=O)O; Abu = CC[C@H](N)C(=O)O
Assays:
E. coli IH3080 [1] = test: Growth inhibition around wells on LB plates containing rifampin (sensitization); format: cell-based, Escherichia coli; conditions: well containing 4 µg of compound; for Antibacterial activity in the presence of rifampin concn (µg/ml) of 0: plates with no rifampin; for Antibacterial activity in the presence of rifampin concn (µg/ml) of 0.1: rifampin 0.1 µg/ml; for Antibacterial activity in the presence of rifampin concn (µg/ml) of 1.0: rifampin 1.0 µg/ml
Description: From an overnight-grown culture of IH3080 on LB agar, a suspension of approx. 10^8 cells/ml was prepared in 0.9% NaCl. Aliquots of this suspension were then pipetted on the agar plates and the plates were gently shaken to spread the suspension evenly on the entire surface of the plate. Thereafter, the unabsorbed part of the suspension was removed by using a Pasteur pipette. After the surface had dried, small wells (diameter, 2 mm) were drilled on the plates (five wells per plate) by using a sterile sharp-edged narrow metal tube, single-use pipette tip, and vacuum suction. […] Controls included 0.9% NaCl solution without the compound to be tested. The plates were then incubated for 18 h at 37°C whereafter the diameters of growth inhibition zones around each well were measured; the diameter of the well itself was […]. Finally, the diameters were converted to surface areas of growth inhibition (in square mm). […] Louis, MO, U.S.A).

[2] = test system: Ps. aeruginosa ATCC 27853; test: Growth inhibition around wells on LB agar plates; format: cell-based, Pseudomonas aeruginosa; conditions: for Antibacterial activity 4 µg: growth inhibition area around a well containing 4 µg; for Antibacterial activity 10 µg: growth inhibition area around a well containing 10 µg
Description: (§1) From an overnight-grown culture of IH3080 on LB agar, a suspension of approx. 10^8 cells/ml was prepared in 0.9% NaCl. Aliquots of this suspension were then pipetted on the agar plates and the plates were gently shaken to spread the suspension evenly on the entire surface of the plate. Thereafter, the unabsorbed part of the suspension was removed by using a Pasteur pipette. After the surface had dried, small wells (diameter, 2 mm) were drilled on the plates (five wells per plate) by using a sterile sharp-edged narrow metal tube, single-use pipette tip, and vacuum suction. Samples (4 µl and 10 µl) of the peptide solution in 0.9% NaCl (at concentrations of 1 µg/ml and 0.1 µg/ml) were then pipetted to the wells and the sample fluids were allowed to absorb. Controls included 0.9% NaCl solution without the compound to be tested. The plates were then incubated for 18 h at 37°C whereafter the diameters of growth inhibition zones around each well were measured; the diameter of the well itself was […]. Finally, the diameters were converted to surface areas of growth inhibition (in square mm).
(§2) Direct antibacterial activity of twelve NAB compounds against Acinetobacter baumannii ATCC 19606 and Pseudomonas aeruginosa ATCC 27853 was tested by using the susceptibility determination method described in Example 2. Five compounds (NAB7062, NAB734, NAB737, NAB739, and NAB740) had notable activity against A. baumannii. […] The antibacterial activity of NAB739 and NAB740 were as strong as or even stronger than that of polymyxin B.

A. baumannii ATCC 19606 = test: Growth inhibition around wells on LB agar plates; format: cell-based, Acinetobacter baumannii; conditions: for Antibacterial activity 4 µg: growth inhibition area around a well containing 4 µg; for Antibacterial activity 10 µg: growth inhibition area around a well containing 10 µg
Description: as §1, §2

[3] = Two-week intravenous toxicity study in young rats; format: in vivo; conditions: for rise of blood urea nitrogen (BUN) over control or low dose group: 16 mg/kg/day
Description: Toxicity in young rats (weighing approx. 150 g in the beginning of the study) was determined by administering doses (1, 2, 4, 8, 16, and 32 mg/kg per day) of NAB7061 as well as the control compound polymyxin B intravenously twice (2) a day for two weeks. A group of ten (10) rats was studied for each dosis regimen. Clinical observations were made daily, the body weight measured twice weekly, and the food consumption twice weekly. In the end of week 2, all animals were sacrificed.
Histopathology of kidneys was performed for each animals and histopathology of all tissues was performed in three high-dose groups receiving NAB7061.

E. coli IH3080 [4] = test: Growth inhibition around wells on LB agar plates; format: cell-based, Escherichia coli; conditions: 18 h at 37°C; for Antibacterial activity at 4 µg: growth inhibition area around a well containing 4 µg of compound; for Antibacterial activity at 10 µg: growth inhibition area around a well containing 10 µg of compound
Description: Peptides synthesized in Example 1, all carrying at least two (2) but not more than three (3) positive charges, were studied for their ability to inhibit the growth of E. coli. This was tested employing LB agar (LB Agar Lennox, Difco, BD, Sparks, MD, U.S.A) plates. The indicator organism E. coli IH3080 (K1:O18) was an encapsulated strain originally isolated from a neonate suffering from meningitis (Vaara et al. 1984) and obtained from National Public Health Institute, Helsinki, Finland.
From an overnight-grown culture of IH3080 on LB agar, a suspension of approx. 10^8 cells/ml was prepared in 0.9% NaCl. Aliquots of this suspension were then pipetted on the agar plates and the plates were gently shaken to spread the suspension evenly on the entire surface of the plate. Thereafter, the unabsorbed part of the suspension was removed by using a Pasteur pipette. After the surface had dried, small wells (diameter, 2 mm) were drilled on the plates (five wells per plate) by using a sterile sharp-edged narrow metal tube, single-use pipette tip, and vacuum suction. […] Controls included 0.9% NaCl solution without the compound to be tested. The plates were then incubated for 18 h at 37°C whereafter the diameters of growth inhibition zones around each well were measured; the diameter of the well itself was […]. Finally, the diameters were converted to surface areas of growth inhibition (in square mm).

[5] = test system: Ps. aeruginosa ATCC 27853; test: Growth inhibition around wells on LB plates containing rifampin (sensitization); format: cell-based, Pseudomonas aeruginosa; conditions: well containing 4 µg
E. coli IH3080 [6] = test system: E. coli IH3080
Description: (§3) MICs were determined by using E-strips (Biodisk Ltd., Solna, Sweden) according to the manufacturer's instructions.
(§4) The strains originated from ATCC (11 strains), CCUG (11 strains), and NCTC (The National Collection of Type Cultures, Colindale, U.K.; 2 strains). Eight strains (the F-strains) were purchased from Mobidiag Ltd., Helsinki, Finland.

E. cloacae ATCC23355 = test system: E. cloacae ATCC23355
Description: as §3, §4

K. pneumoniae ATCC13883 = test system: K. pneumoniae ATCC13883
Description: as §3, §4

P. mirabilis ATCC29906 = test: MIC by E-strips on Mueller-Hinton agar with or without NAB7061 (4 µg/ml); format: cell-based, Proteus mirabilis
Description: as §3, §4

[7] = E. coli IH3080, 4 µg/ml of NAB 7061
[8] = E. cloacae ATCC23355, 4 µg/ml of NAB 7061
[9] = K. pneumoniae ATCC1 3883, 4 µg/ml of NAB 7061

CCCCCCCC(=O)N[C@H](C(=O)N[C@@H](CC)C(=O)N[C@H]1CCNC(=O)[C@H]([C@@H](C)O)NC(=O)[C@H](CCN)NC(=O)[C@H](CCN)NC(=O)[C@H](CC(C)C)NC(=O)[C@@H](Cc2ccccc2)NC(=O)[C@H](CCN)NC1=O)[C@@H](C)O [NAB 7061, OA-Thr-Abu-cy[Dab-Dab-DPhe-Leu-Dab-Dab-Thr-]] (Octanoyl-T[Abu][Dab][Dab][dF]L[Dab][Dab]T; lactam 3-C)
Antibacterial activity in the presence of rifampin concn (µg/ml) of 0 (E. coli IH3080 [1]): 0 square millimeters | Antibacterial activity in the presence of rifampin concn (µg/ml) of 0.1 (E. coli IH3080 [1]): […] | Antibacterial activity in the presence of rifampin concn (µg/ml) of 1.0 (E. coli IH3080 [1]): 155 square millimeters | Antibacterial activity 4 µg [2]: 0 square millimeters | Antibacterial activity 10 µg [2]: 0 square millimeters | Antibacterial activity 4 µg (A. baumannii ATCC 19606): 0 square millimeters | Antibacterial activity 10 µg (A. baumannii ATCC 19606): 0 square millimeters | rise of blood urea nitrogen (BUN) over control or low dose group ([3]; rat, in vivo): no such a rise was found | general pathology and histopathology of organs and kidneys ([3]; rat, in vivo, iv): No NAB7061-related pathological findings | lowest dose that negatively influenced the body weight gain ([3]; rat, in vivo, iv): 8 mg/kg | rise of blood urea nitrogen (BUN) ([3]; rats, 32 mg/kg per day, end of the study): 7% | survival ([3]; rats, 1 to 32 mg/kg per day intravenously, two weeks): all rats receiving NAB7061 remained alive throughout the study | Antibacterial activity at 4 µg (E. coli IH3080 [4]): 0 square millimeters | Antibacterial activity at 10 µg (E. coli IH3080 [4]): 50 square millimeters | Antibacterial activity, rifampin 0 ([5]; no rifampin (control)): 0 square millimeters | Antibacterial activity, rifampin 0.1 ([5]; rifampin 0.1 µg/ml): 0 square millimeters | Antibacterial activity, rifampin 0.3 ([5]; rifampin 0.3 µg/ml): 0 square millimeters | MIC (µg/ml) of clarithromycin in the presence of 4 µg/ml of NAB 7061 (E. coli IH3080 [6]; E. coli IH3080): […] | MIC (µg/ml) of rifampin in the presence of 4 µg/ml of NAB 7061 (E. coli IH3080 [6]; E. coli IH3080): […] | Sensitization factor to clarithromycin (E. coli IH3080 [6]; [7]): […] | Sensitization factor to rifampin (E. coli IH3080 [6]; [7]): […] | MIC of NAB7061 (E. coli IH3080 [6]; E. coli IH3080, Mueller-Hinton agar): […] | MIC (µg/ml) of clarithromycin in the presence of 4 µg/ml of NAB 7061 (E. cloacae ATCC23355; E. cloacae ATCC23355): 0,25 - 0,75 µg/ml | MIC (µg/ml) of rifampin in the presence of 4 µg/ml of NAB 7061 (E. cloacae ATCC23355; E. cloacae ATCC23355): 0,008 - 0,016 µg/ml | Sensitization factor to clarithromycin (E. cloacae ATCC23355; [8]): […] | Sensitization factor to rifampin (E. cloacae ATCC23355; [8]): […] | MIC of NAB7061 (E. cloacae ATCC23355; E. cloacae ATCC23355, Mueller-Hinton agar): […] | MIC (µg/ml) of clarithromycin in the presence of 4 µg/ml of NAB 7061 (K. pneumoniae ATCC13883; K. pneumoniae ATCC1 3883): […] | MIC (µg/ml) of rifampin in the presence of 4 µg/ml of NAB 7061 (K. pneumoniae ATCC13883; K. pneumoniae ATCC1 3883): […] | Sensitization factor to clarithromycin (K. pneumoniae ATCC13883; [9]): […] | Sensitization factor to rifampin (K. pneumoniae ATCC13883; [9]): […] | MIC of NAB7061 (K. pneumoniae ATCC13883; K. pneumoniae ATCC13883, Mueller-Hinton agar): […] | MIC (µg/ml) of clarithromycin in the presence of 4 µg/ml of NAB 7061 (P. mirabilis ATCC29906): […] | MIC (µg/ml) of rifampin in the presence of 4 µg/ml of NAB 7061 (P. mirabilis ATCC29906): 1 to 6 µg/mL | Sensitization factor to clarithromycin (P. mirabilis ATCC29906; 4 µg/ml of NAB 7061): <2 | Sensitization factor to rifampin (P. mirabilis ATCC29906; 4 µg/ml of NAB 7061): <2

Polymyxin B
Antibacterial activity in the presence of rifampin concn (µg/ml) of 0 (E. coli IH3080 [1]): 79 square millimeters | Antibacterial activity in the presence of rifampin concn (µg/ml) of 0.1 (E. coli IH3080 [1]): 95 square millimeters | Antibacterial activity in the presence of rifampin concn (µg/ml) of 1.0 (E. coli IH3080 [1]): 104 square millimeters | Antibacterial activity 4 µg [2]: 95 square millimeters | Antibacterial activity 10 µg [2]: 133 square millimeters | Antibacterial activity 4 µg (A. baumannii ATCC 19606): 113 square millimeters | Antibacterial activity 10 µg (A. baumannii ATCC 19606): 154 square millimeters | rise of blood urea nitrogen (BUN) over control or low dose group ([3]; rat, in vivo): 15% | mortality ([3]; rats, 32 mg/kg per day intravenously, two weeks): 100% | Antibacterial activity at 4 µg (E. coli IH3080 [4]): 79 square millimeters | Antibacterial activity at 4 µg (E. coli IH3080 [4]; listed as Polymyxin B sulfate): 95 square millimeters | Antibacterial activity at 10 µg (E. coli IH3080 [4]): 133 square millimeters | Sensitization factor (E. coli IH3080 [6]; ratio of the MIC of the antibiotic in the absence of NAB 7061 to that in the presence of 4 µg/ml of NAB 7061, E. coli IH 3080): 2 | Sensitization factor (E. cloacae ATCC23355; ratio of the MIC of the antibiotic in the absence of NAB 7061 to that in the presence of 4 µg/ml of NAB 7061, E. cloacae ATCC 23355): 4 | Sensitization factor (K. pneumoniae ATCC13883; ratio of the MIC of the antibiotic in the absence of NAB 7061 to that in the presence of 4 µg/ml of NAB 7061, K. pneum. ATCC 13883): 1

From patent publication EP2057185B1, “POLYMYXIN DERIVATIVES AND USES THEREOF” (Northern Antibiotics Oy, priority 2006, dated 2008)
